# Patent US7812021B2, “Pyrrolidine aryl-ether as NK3 receptor antagonists” (Hoffmann-La Roche Inc., priority 2007, dated 2010)
# Molecular target: T1, recombinant human NK3 receptor (Homo sapiens, UniProt P29371)
# T1 construct: expressed in transfected cells; host or cells: HEK293 cells, transient expression; membranes
# T1 sequence (P29371 1-465): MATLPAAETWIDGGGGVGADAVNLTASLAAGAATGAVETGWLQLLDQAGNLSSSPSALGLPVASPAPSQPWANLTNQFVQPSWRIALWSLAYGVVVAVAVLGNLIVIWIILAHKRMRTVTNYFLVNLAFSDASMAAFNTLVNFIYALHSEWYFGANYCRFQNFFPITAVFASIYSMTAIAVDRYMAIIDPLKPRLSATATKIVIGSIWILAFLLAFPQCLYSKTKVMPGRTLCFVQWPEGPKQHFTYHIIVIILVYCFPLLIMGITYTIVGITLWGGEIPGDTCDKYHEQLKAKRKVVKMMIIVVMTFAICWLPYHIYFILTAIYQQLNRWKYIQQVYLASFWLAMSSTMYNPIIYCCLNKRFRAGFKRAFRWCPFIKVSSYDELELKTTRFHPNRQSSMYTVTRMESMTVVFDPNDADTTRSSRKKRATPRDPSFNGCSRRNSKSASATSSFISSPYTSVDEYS
# Test: [3H]SR142801 competition binding assay
# Details: membranes from HEK293 cells transiently expressing recombinant human NK3 receptor; [3H]SR142801 radioligand; Ki by Cheng-Prussoff
# Procedure: [^3H]SR142801 Competition Binding Assay
# hNK3 receptor binding experiment were performed using [^3H]SR142801 (Catalog No. TRK1035, specific activity: 74.0 Ci/mmol, Amersham, GE Healthcare UK limited, Buckinghamshire, UK) and membrane isolated from HEK293 cells transiently expressing recombinant human NK3 receptor. After thawing, the membrane homogenates were centrifuged at 48,000×g for 10 min at 4° C., the pellets were resuspended in the 50 mM Tris-HCl, 4 mM MnCl2, 1 μM phosphoramidon, 0.1% BSA binding buffer at pH 7.4 to a final assay concentration of 5 μg protein/well. For inhibition experiments, membranes were incubated with [^3H]SR142801 at a concentration equal to KD value of radioligand and 10 concentrations of the inhibitory compound (0.0003-10 μM) (in a total reaction volume of 500 μl) for 75 min at room temperature (RT). At the end of the incubation, membranes were filtered onto unit filter (96-well white microplate with bonded GF/C filter preincubated 1 h in 0.3% PEI+0.3% BSA, Packard BioScience, Meriden, Conn.) with a Filtermate 196 harvester (Packard BioScience) and washed 4 times with ice-cold 50 mM Tris-HCl, pH 7.4 buffer. Nonspecific binding was measured in the presence of 10 μM SB222200 for both radioligands. The radioactivity on the filter was counted (5 min) on a Packard Top-count microplate scintillation counter with quenching correction after addition of 45 μl of microscint 40 (Canberra Packard S. A., Zürich, Switzerland) and shaking for 1 h. Inhibition curves were fitted according to the Hill equation: y=100/(1+(x/IC50)^nH), where nH=slope factor using Excel-fit 4 software (Microsoft). IC50 values were derived from the inhibition curve and the affinity constant (Ki) values were calculated using the Cheng-Prussoff equation Ki=IC50/(1+[L]/KD) where [L] is the concentration of radioligand and KD is its dissociation constant at the receptor, derived from the saturation isotherm. All experiments were performed in duplicate and the mean±standard error (SEM) of the individual Ki values was calculated.
row,Structure (SMILES),Ki [nM]
1,"C[C@@H]1CN(C(=O)N2C[C@@H]([C@@H](C)Oc3ccc(C(F)(F)F)cc3)[C@H](c3ccc(Cl)c(Cl)c3)C2)CCN1S(C)(=O)=O (mixture of isomers) [Example 27, {(3RS,4SR)-3-(3,4-Dichloro-phenyl)-4-[(RS)-1-(4-trifluoromethyl-phenoxy)-ethyl]-pyrrolidin-1-yl}-((R)-4-methanesulfonyl-3-methyl-piperazin-1-yl)-methanone]",9.6
2,"C[C@@H](Oc1ccc(Cl)cc1)[C@@H]1CN(C(=O)N2CCN(S(C)(=O)=O)CC2)C[C@H]1c1ccc(Cl)c(Cl)c1 (mixture of isomers) [Example 36, [(3SR,4RS)-3-[(R)-1-(4-Chloro-phenoxy)-ethyl]-4-(3,4-dichloro-phenyl)-pyrrolidin-1-yl]-(4-methanesulfonyl-piperazin-1-yl)-methanone]",21.1
3,"C[C@@H](Oc1ccc(C(F)(F)F)cc1)[C@@H]1CN(C(=O)N2CCN(S(C)(=O)=O)CC2)C[C@H]1c1ccc(Cl)c(Cl)c1 (racemic) [Example 16, {(3RS,4SR)-3-(3,4-Dichloro-phenyl)-4-[(RS)-1-(4-trifluoromethyl-phenoxy)-ethyl]-pyrrolidin-1-yl}-(4-methanesulfonyl-piperazin-1-yl)-methanone]",28.8
4,"C[C@H](Oc1ccc(C(F)(F)F)cc1)[C@@H]1CN(C(=O)N2CCN(S(C)(=O)=O)CC2)C[C@H]1c1ccc(Cl)c(Cl)c1 (racemic) [Example 17, {(3RS,4SR)-3-(3,4-Dichloro-phenyl)-4-[(SR)-1 (4-trifluoromethyl-phenoxy)-ethyl]-pyrrolidin-1-yl}-(4-methanesulfonyl-piperazin-1-yl)-methanone]",46.8
5,"C[C@@H](Oc1ccc(C(F)(F)F)cc1)[C@@H]1CN(C(=O)N2CCC(N(C)S(C)(=O)=O)CC2)C[C@H]1c1ccc(Cl)c(Cl)c1 (racemic) [Example 18, N-(1-{(3RS,4SR)-3-(3,4-Dichloro-phenyl)-4-[(RS)-1-(4-trifluoromethyl-phenoxy)-ethyl]-pyrrolidine-1-carbonyl}-piperidin-4-yl)-N-methyl-methanesulfonamide]",77.9
6,"C[C@@H](Oc1ccc(C(F)(F)F)cc1)[C@@H]1CN(C(=O)CN2CCC(N(C)S(C)(=O)=O)CC2)C[C@H]1c1ccc(Cl)c(Cl)c1 (racemic) [Example 20, N-[1-(2-{(3RS,4SR)-3-(3,4-Dichloro-phenyl)-4-[(RS)-1-(4-trifluoromethyl-phenoxy)-ethyl]-pyrrolidin-1-yl}-2-oxo-ethyl)-piperidin-4-yl]-N-methyl-methanesulfonamide]",59.5
7,"CC(=O)N1CCN(CC(=O)N2C[C@@H]([C@@H](C)Oc3ccc(C(F)(F)F)cc3)[C@H](c3ccc(Cl)c(Cl)c3)C2)CC1 (racemic) [Example 24, 2-(4-Acetyl-piperazin-1-yl)-1-{(3RS,4SR)-3-(3,4-dichloro-phenyl)-4-[(RS)-1-(4-trifluoromethyl-phenoxy)-ethyl]-pyrrolidin-1-yl}-ethanone]",58.9
8,"CC(=O)NC1CCN(CC(=O)N2C[C@@H]([C@@H](C)Oc3ccc(C(F)(F)F)cc3)[C@H](c3ccc(Cl)c(Cl)c3)C2)CC1 (racemic) [Example 25, N-[1-(2-{(3RS,4SR)-3-(3,4-Dichloro-phenyl)-4-[(RS)-1-(4-trifluoromethyl-phenoxy)-ethyl]-pyrrolidin-1-yl}-2-oxo-ethyl)-piperidin-4-yl]-acetamide]",59.7
9,"C[C@@H](Oc1ccc(Cl)c(Cl)c1)[C@@H]1CN(C(=O)N2CCN(S(C)(=O)=O)CC2)C[C@H]1c1ccc(Cl)c(Cl)c1 (racemic) [Example 30, [(3SR,4RS)-3-[(RS)-1-(3,4-Dichloro-phenoxy)-ethyl]-4-(3,4-dichloro-phenyl)-pyrrolidin-1-yl]-(4-methanesulfonyl-piperazin-1-yl)-methanone]",79.6
10,"Cc1ccc(O[C@H](C)[C@@H]2CN(C(=O)N3CCN(S(C)(=O)=O)CC3)C[C@H]2c2ccc(Cl)c(Cl)c2)cc1 (racemic) [Example 31, [(3RS,4SR)-3-(3,4-Dichloro-phenyl)-4-((RS)-1-p-tolyloxy-ethyl)-pyrrolidin-1-yl]-(4-methanesulfonyl-piperazin-1-yl)-methanone]",58.9
11,"C[C@@H](Oc1ccc(C#N)cc1)[C@@H]1CN(C(=O)N2CCN(S(C)(=O)=O)CC2)C[C@H]1c1ccc(Cl)c(Cl)c1 (racemic) [Example 33, 4-{(RS)-1-[(3SR,4RS)-4-(3,4-Dichloro-phenyl)-1-(4-methanesulfonyl-piperazine-1-carbonyl)-pyrrolidin-3-yl]ethoxy}-benzonitrile]",75.6
12,"C[C@@H](Oc1ccc(F)cc1)[C@@H]1CN(C(=O)N2CCN(S(C)(=O)=O)CC2)C[C@H]1c1ccc(Cl)c(Cl)c1 (racemic) [Example 34, {(3RS,4SR)-3-(3,4-Dichloro-phenyl)-4-[(RS)-1-(4-fluoro-phenoxy)-ethyl]-pyrrolidin-1-yl}-(4-methanesulfonyl-piperazin-1-yl)-methanone]",40.1

# Next, values leading:
row,Ki [nM],Structure (SMILES)
1,2,"C[C@@H]1CN(C(=O)N2C[C@@H]([C@@H](C)Oc3ccc(Cl)cn3)[C@H](c3ccc(Cl)c(Cl)c3)C2)CCN1S(C)(=O)=O (mixture of isomers) [Example 54, [(3SR,4RS)-3-[(RS)-1-(5-Chloro-pyridin-2-yloxy)-ethyl]-4-(3,4-dichloro-phenyl)-pyrrolidin-1-yl]-((R)-4-methanesulfonyl-3-methyl-piperazin-1-yl)-methanone]"
2,2.9,"C[C@@H](Oc1ccc(Cl)cn1)[C@@H]1CN(C(=O)N2CCN(S(C)(=O)=O)CC2)C[C@H]1c1ccc(Cl)c(Cl)c1 (racemic) [Example 39, [(3SR,4RS)-3-[(RS)-1-(5-Chloro-pyridin-2-yloxy)-ethyl]-4-(3,4-dichloro-phenyl)-pyrrolidin-1-yl]-(4-methanesulfonyl-piperazin-1-yl)-methanone]"
3,49,"C[C@@H](Oc1ccc(F)c(Cl)c1)[C@@H]1CN(C(=O)N2CCN(S(C)(=O)=O)CC2)C[C@H]1c1ccc(Cl)c(Cl)c1 (racemic) [Example 41, [(3SR,4RS)-3-[(RS)-1-(3-Chloro-4-fluoro-phenoxy)-ethyl]-4-(3,4-dichloro-phenyl)-pyrrolidin-1-yl]-(4-methanesulfonyl-piperazin-1-yl)-methanone]"
4,69.9,"C[C@@H](Oc1ncccn1)[C@@H]1CN(C(=O)N2CCN(S(C)(=O)=O)CC2)C[C@H]1c1ccc(Cl)c(Cl)c1 (racemic) [Example 42, [(3RS,4SR)-3-(3,4-Dichloro-phenyl)-4-[(RS)-1-(pyrimidin-2-yloxy)-ethyl]-pyrrolidin-1-yl}-(4-methanesulfonyl-piperazin-1-yl)-methanone]"
5,95.4,"C[C@H](Oc1ccc(C#N)cc1)[C@@H]1CN(C(=O)N2CCN(S(C)(=O)=O)CC2)C[C@H]1c1ccc(Cl)c(Cl)c1 (racemic) [Example 45, 4-{(SR)-1-[(3SR,4RS)-4-(3,4-Dichloro-phenyl)-1-(4-methanesulfonyl-piperazine-1-carbonyl)-pyrrolidin-3-yl]-ethoxy}-benzonitrile]"
6,49.7,"C[C@H](Oc1ccc(F)cc1)[C@@H]1CN(C(=O)N2CCN(S(C)(=O)=O)CC2)C[C@H]1c1ccc(Cl)c(Cl)c1 (racemic) [Example 46, {(3RS,4SR)-3-(3,4-Dichloro-phenyl)-4-[(SR)-1-(4-fluoro-phenoxy)-ethyl]-pyrrolidin-1-yl}-(4-methanesulfonyl-piperazin-1-yl)-methanone]"
7,68,"C[C@H](Oc1ccc(Cl)cc1)[C@@H]1CN(C(=O)N2CCN(S(C)(=O)=O)CC2)C[C@H]1c1ccc(Cl)c(Cl)c1 (racemic) [Example 48, [(3SR,4RS)-3-[(SR)-1-(4-Chloro-phenoxy)-ethyl]-4 (3,4-dichloro-phenyl)-pyrrolidin-1-yl]-(4-methanesulfonyl-piperazin-1-yl)-methanone]"
